# According to patent publication US6825230B2, “Spiro and dispiro 1,2,4-trixolane antimalarials” (Medicines for Malaria Venture MMV, priority 2002, dated 2004):
# Assays:
# [1] = system: chloroquine-resistant K1 strain of P. falciparum; assay: In vitro antimalarial semiautomated microdilution assay ([3H]-hypoxanthine incorporation), K1 strain; assay type: cell-based, Plasmodium falciparum; settings: for IC50: Plasmodium falciparum, K1, 72 h, read-out: IC50 (ng/ml) K1, chloroquine-resistant K1 strain, 72 h incubation
# How it was run: (§1)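 Asynchronous stock-culture parasites (intraerythrocytic forms), serial compound dilutions; readout [3H]-hypoxanthine uptake; IC50 via Logit regression.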
# [2] = system: ANKA strain of Plasmodium berghei; assay: Single dose ED50/ED90/ED99 determination in infected mice; assay type: in vivo; settings: single dose po in SSV on day 1 post-infection, parasitemia day 3, nonlinear fitting
# Experimental: In the single dose ED50/ED98/ED99 determinations, Moro SPF or NMRI mice (group of three) infected with the ANKA strain of Plasmodium berghei were treated on day one post-infection. […] The SSV consists of 0.5% w/v CMC, 0.5% v/v benzyl alcohol, 0.4% v/v Tween 80, and 0.9% w/v sodium chloride in water. Antimalarial activity was measured by percent reduction in parasitemia on day three post-infection. The ED50/ED90 values were calculated by nonlinear fitting.
# The ED50, ED90, and ED99 values were calculated by non-linear fitting with statistical program and were expressed in mg/kg.
# [3] = system: chloroquine-sensitive NF54 strain of P. falciparum; assay: In vitro antimalarial semiautomated microdilution assay ([3H]-hypoxanthine incorporation), NF54 strain; assay type: cell-based, Plasmodium falciparum; settings: for IC50: Plasmodium falciparum, NF54, 72 h, read-out: IC50 (ng/ml) NF54, chloroquine-sensitive NF54 strain, 72 h incubation
# How it was run: as §1
# [4] = system: ANKA strain of P. berghei; assay: Single dose STI in vivo screen in infected mice; parameters: species or system Plasmodium berghei; settings: for Survival (days) 10 mg/kg po: single 10 mg/kg po in 3% ethanol and 7% Tween 80; for Survival (days) 10 mg/kg po / Survival (days) 10 mg/kg SSV po / Survival (days) 10 mg/kg sc: untreated 6-7 days; for Activity (%) 10 mg/kg po: single 10 mg/kg po in 3% ethanol and 7% Tween 80 on day 1 post-infection; for Activity (%) 10 mg/kg po / Activity (%) 10 mg/kg SSV po / Activity (%) 10 mg/kg sc: percent reduction in parasitemia on day 3; for Survival (days) 10 mg/kg SSV po: single 10 mg/kg po in SSV; for Activity (%) 10 mg/kg SSV po: single 10 mg/kg po in standard suspending vehicle (SSV) on day 1 post-infection; for Survival (days) 10 mg/kg sc: single 10 mg/kg sc in 3% ethanol and 7% Tween 80; for Activity (%) 10 mg/kg sc: single 10 mg/kg sc in 3% ethanol and 7% Tween 80 on day 1 post-infection
# [5] = system: Schistosoma mansoni 21-day-old schistosomules; assay: Effect on 21-day-old schistosomules in infected mice; assay type: in vivo; settings: for % reduction of schistosomule growth at day 21 after per os application of 200 mg/kg, FWR (%): female worm reduction rate
# Experimental: Mice were infected with 100 Schistosoma mansoni cercariae on day 21 post-treatment. Each group was treated per os with trioxolanes at a single dose of 200 mg/kg. […] All groups were killed 4 weeks after treatment and the liver and intestine were removed and separated. The liver and intestine were compressed and alive male and female worms could be seen and counted. The effect of the compounds was evaluated by mean total and female worm burden.
# [6] = system: Schistosoma mansoni adult worms (49-day-old); assay: Effect on adult schistosomes (49-day-old) in infected mice; assay type: in vivo; settings: for % reduction of adult worms growth at day 49 after per os application of 400 mg/kg, TWR (%) / Adult worms day 49, per os 400 mg/kg, DEAD WORM (%): single 400 mg/kg per os
# Experimental: Mice were infected with 100 Schistosoma mansoni cercariae on day 49 post-treatment. Each group was treated per os with OZ compounds at single doses of 200, 400, and 600 mg/kg. Untreated mice served as the control. All groups were killed 4 weeks after treatment and the liver and intestine were removed and separated. The liver and intestine were compressed and alive male and female worms could be seen and counted.
# [7] = single 200 mg/kg per os, 21-day-old schistosomules
# [8] = single 200 mg/kg per os, 21-day-old schistosomules, total worm reduction rate
# [9] = 49-day-old adults, total worm reduction rate
# [10] = percentage of dead worm in the liver
structure (smiles),measurement,setting,value
"c1ncn(C[C@H]2CC[C@]3(CC2)OOC2(O3)C3CC4CC(C3)CC2C4)n1 (stereo partly drawn) [OZ177, cis-Adamantane-2-spiro-3′-8′-(1′H-1′,2′,4′-triazol-1′-ylmethyl)-1′,2′,4-trioxaspiro[4.5]decane]",IC50 (ng/ml) K1,"[1]; chloroquine-resistant K1 strain, 72 h incubation",0.9 ng/mL
same,ED50,"[2]; Plasmodium berghei, po",2.1 mg/kg
same,ED90,[2],3.7 mg/kg
same,ED99,[2],5.8 mg/kg
same,IC50 (ng/ml) NF54,"[3]; chloroquine-sensitive NF54 strain, 72 h incubation",1.7 ng/mL
same,Survival (days) 10 mg/kg po,[4]; 10 mg/kg,12.3 days
same,Activity (%) 10 mg/kg po,[4]; 10 mg/kg,99.91%
same,Survival (days) 10 mg/kg SSV po,[4]; 10 mg/kg,12.7 days
same,Activity (%) 10 mg/kg SSV po,[4]; 10 mg/kg,99.88%
same,Survival (days) 10 mg/kg sc,[4]; 10 mg/kg,17.7 days
same,Activity (%) 10 mg/kg sc,[4]; 10 mg/kg,99.91%
CC(C)(O)[C@H]1CC[C@]2(CC1)OOC1(O2)C2CC3CC(C2)CC1C3 (stereo partly shown) [OZ108],"% reduction of schistosomule growth at day 21 after per os application of 200 mg/kg, FWR (%)",[5]; [7],28%
same,"% reduction of schistosomule growth at day 21 after per os application of 200 mg/kg, TWR (%)",[5]; [8],30%
same,IC50,[1],68 ng/mL
same,IC50,[3],29 ng/mL
same,"% reduction of adult worms growth at day 49 after per os application of 400 mg/kg, TWR (%)",[6]; [9],28%
same,"Adult worms day 49, per os 400 mg/kg, DEAD WORM (%)",[6]; [10],0%
same,Survival (days) 10 mg/kg po,[4],5.0 days
same,Activity (%) 10 mg/kg po,[4],0/0/0%
same,Survival (days) 10 mg/kg SSV po,[4],5.0 days
same,Activity (%) 10 mg/kg SSV po,[4],0/0/0%
same,Survival (days) 10 mg/kg sc,[4],5.7 days
same,Activity (%) 10 mg/kg sc,[4],0/0/0%
c1cn(C[C@H]2CC[C@]3(CC2)OOC2(O3)C3CC4CC(C3)CC2C4)cn1 (stereo partly shown) [OZ179],IC50,[1],1.3 ng/mL
same,ED50,"[2]; Plasmodium berghei, po",1.4 mg/kg
same,ED90,[2],3.3 mg/kg
same,ED99,[2],6.6 mg/kg
same,IC50,[3],1.1 ng/mL
same,Survival (days) 10 mg/kg po,"[4]; hydrochloride, 10 mg/kg",11.3 days
same,Activity (%) 10 mg/kg po,"[4]; hydrochloride, 10 mg/kg",99.91%
same,Survival (days) 10 mg/kg SSV po,"[4]; hydrochloride, 10 mg/kg",10.3 days
same,Activity (%) 10 mg/kg SSV po,"[4]; hydrochloride, 10 mg/kg",99.78%
same,Survival (days) 10 mg/kg sc,"[4]; hydrochloride, 10 mg/kg",11.3 days
same,Activity (%) 10 mg/kg sc,"[4]; hydrochloride, 10 mg/kg",99.91%
O=C(NO)[C@H]1CC[C@@]2(CC1)OOC1(O2)C2CC3CC(C2)CC1C3 (stereo partly shown) [OZ127],IC50,[1],0.61 ng/mL
same,ED50,"[2]; Plasmodium berghei, po",2.5 mg/kg
same,ED90,[2],7.6 mg/kg
same,ED99,[2],19 mg/kg
same,IC50,[3],1.3 ng/mL
same,Survival (days) 10 mg/kg po,[4],7.0 days
same,Activity (%) 10 mg/kg po,[4],95%
same,Survival (days) 10 mg/kg SSV po,[4],7.7 days
same,Activity (%) 10 mg/kg SSV po,[4],98%
same,Survival (days) 10 mg/kg sc,[4],7.7 days
same,Activity (%) 10 mg/kg sc,[4],97%
"C[C@H]1[C@@H](OCc2ccc(C(=O)O)cc2)O[C@@H]2O[C@@]3(C)CC[C@H]4[C@H](C)CC[C@@H]1[C@@]24OO3 [Artelinate, artelinate, reference compound]",ED50,[2],4.8 mg/kg
same,ED90,[2],10 mg/kg
same,ED99,[2],18 mg/kg
O=C(O)C1CCC2(CC1)OOC1(O2)C2CC3CC(C2)CC1C3 (stereo not shown) [OZ71],"% reduction of schistosomule growth at day 21 after per os application of 200 mg/kg, FWR (%)",[5]; [7],85%
same,"% reduction of schistosomule growth at day 21 after per os application of 200 mg/kg, TWR (%)",[5]; [8],91%
same,"% reduction of adult worms growth at day 49 after per os application of 400 mg/kg, TWR (%)",[6]; [9],0%
same,"Adult worms day 49, per os 400 mg/kg, DEAD WORM (%)","[6]; percentage of dead worm in the liver, listed as OZ 71",16%
CC(C)(C)C1CCC2(CC1)OOC1(O2)C2CC3CC(C2)CC1C3 (stereo not shown) [OZ18],"% reduction of schistosomule growth at day 21 after per os application of 200 mg/kg, FWR (%)",[5]; [7],9%
same,"% reduction of schistosomule growth at day 21 after per os application of 200 mg/kg, TWR (%)",[5]; [8],12%
same,"% reduction of adult worms growth at day 49 after per os application of 400 mg/kg, TWR (%)",[6]; [9],0/0%
same,"Adult worms day 49, per os 400 mg/kg, DEAD WORM (%)",[6]; [10],0/0%
c1ccc2c(c1)COC1(CCC3(CC1)OOC1(O3)C3CC4CC(C3)CC1C4)OC2 (stereo not shown) [OZ31],"% reduction of schistosomule growth at day 21 after per os application of 200 mg/kg, FWR (%)",[5]; [7],63%
same,"% reduction of schistosomule growth at day 21 after per os application of 200 mg/kg, TWR (%)",[5]; [8],60%
same,"% reduction of adult worms growth at day 49 after per os application of 400 mg/kg, TWR (%)",[6]; [9],4/4%
same,"Adult worms day 49, per os 400 mg/kg, DEAD WORM (%)",[6]; [10],4/4%
O=C1CCC2(CC1)OOC1(CCCCCCCCCCC1)O2 [OZ21],"% reduction of schistosomule growth at day 21 after per os application of 200 mg/kg, FWR (%)",[5]; [7],0%
same,"% reduction of schistosomule growth at day 21 after per os application of 200 mg/kg, TWR (%)",[5]; [8],0%
same,"% reduction of adult worms growth at day 49 after per os application of 400 mg/kg, TWR (%)",[6]; [9],0/0%
same,"Adult worms day 49, per os 400 mg/kg, DEAD WORM (%)",[6]; [10],0/0%
NC[C@H]1CC[C@]2(CC1)OOC1(O2)C2CC3CC(C2)CC1C3 (stereo partly shown) [OZ181],ED50,"[2]; Plasmodium berghei, po",0.63 mg/kg
same,ED90,[2],1.8 mg/kg
same,ED99,[2],4.0 mg/kg
same,Survival (days) 10 mg/kg po,[4]; 10 mg/kg,9.0 days
same,Activity (%) 10 mg/kg po,[4]; 10 mg/kg,99.98%
same,Survival (days) 10 mg/kg SSV po,[4]; 10 mg/kg,10.0 days
same,Activity (%) 10 mg/kg SSV po,[4]; 10 mg/kg,99.91%
same,Survival (days) 10 mg/kg sc,[4]; 10 mg/kg,11.0 days
same,Activity (%) 10 mg/kg sc,[4]; 10 mg/kg,100%
OC1CCC2(CC1)OOC1(O2)C2CC3CC(C2)CC1C3 (stereo not shown) [OZ32],"% reduction of schistosomule growth at day 21 after per os application of 200 mg/kg, FWR (%)",[5]; [7],70%
same,"% reduction of schistosomule growth at day 21 after per os application of 200 mg/kg, TWR (%)",[5]; [8],73%
same,"% reduction of adult worms growth at day 49 after per os application of 400 mg/kg, TWR (%)",[6]; [9],27%
same,"Adult worms day 49, per os 400 mg/kg, DEAD WORM (%)",[6]; [10],28%
C1CC2(CCN1)OOC1(O2)C2CC3CC(C2)CC1C3.Cl (stereo not shown) [OZ80],"% reduction of schistosomule growth at day 21 after per os application of 200 mg/kg, FWR (%)",[5]; [7],75%
same,"% reduction of schistosomule growth at day 21 after per os application of 200 mg/kg, TWR (%)",[5]; [8],79%
same,"% reduction of adult worms growth at day 49 after per os application of 200 mg/kg, TWR (%)","[6]; single 200 mg/kg per os, 49-day-old adults, total worm reduction rate",0%
same,"Adult worms day 49, per os 200 mg/kg, DEAD WORM (%)","[6]; single 200 mg/kg per os, percentage of dead worm in the liver",3%
O=C1CCC2(CCO1)OOC1(O2)C2CC3CC(C2)CC1C3 (stereo not shown) [OZ17],"% reduction of schistosomule growth at day 21 after per os application of 200 mg/kg, TWR (%)","[5]; po, 200 mg/kg, 504 h",23%
same,"% reduction of schistosomule growth at day 21 after per os application of 200 mg/kg, FWR (%)",[5]; [7],7%
same,"% reduction of adult worms growth at day 49 after per os application of 400 mg/kg, TWR (%)",[6]; [9],0%
same,"Adult worms day 49, per os 400 mg/kg, DEAD WORM (%)",[6]; [10],5%
